Structures are written as SMILES. Where only a bound is given, the exact number is not on record here.

This assay concerns A673 NR0B1-luciferase reporter, viability-normalised luminescence. Nature of the assay: NR0B1 reporter signal reduction in A673 cells – cell-based, luciferase luminescence, cherry-pick, EWS/Fli inhibitor project, dose response (AID 686920).

On to `O=C1CCC2S/C(=C/Nc3ccc(C(F)(F)F)cc3)C(=O)N12` (stereo not given), for which the AC35 was 0.385 µM. For `COc1cc(/C=C/C(=O)/C=C(O)/C=C/c2ccc(O)c(OC)c2)ccc1O` the value was 5.92 µM; for `COc1ccc(/C=C2\Oc3ccccc3C2=O)cc1`, 8.51 µM. Consider `Cc1cc(C)cc(C(=O)NC(=S)Nc2ccc(Cc3ccncc3)cc2)c1`, for which the AC35 is 7.99 µM. For `CCn1c(C)cc(C(=O)CN2C(=O)c3ccccc3S2(=O)=O)c1C` the value was 1.23 µM; for `O=C(NCCc1ccccc1)c1ccccc1NC(=O)C1CCCO1` (stereo not given), 6.89 µM. For `CN(C)c1ncnc2c1ccn2C1OC(CO)C(O)C1O` (stereo not given) the value was 3.44 µM; for `COc1ccc(OC)c(-c2nnc3n2N=C(c2ccc(OC)c(OC4CCOC4)c2)CS3)c1` (stereo not given), 6.56 µM; for `COc1ccc(C(=O)CN2C(=O)c3ccccc3S2(=O)=O)cc1`, 0.279 µM. In the case of `COC(=O)CC1(C(=O)OC)Oc2ccc(Br)cc2C(=O)N1c1cccc(Cl)c1Cl` (stereo not given), the AC35 was 15 µM. The result for `C[C@@H]1CCCCO[C@H](CN(C)Cc2ccc(C(=O)Nc3ccccc3N)cc2)[C@@H](C)CN([C@H](C)CO)C(=O)c2cc(NS(=O)(=O)c3ccc(F)cc3)ccc2O1` reads 5.53 µM. Consider `COc1ccc2cc(C(N)=O)/c(=N\NC(=O)c3ccccc3)oc2c1`, for which the AC35 was 5.91 µM. For `COC1C(C)OC(OC2CC(C)(O)Cc3cc4c(c(O)c32)C(=O)c2c(O)cc3c(c2C4=O)OC2OC3(C)C(O)C(N(C)C)C2O)C(OC)C1(C)OC` (stereo not given), the AC35 was 0.0829 µM.

As to `COc1cc2c(OC(C)=O)c3c(c(-c4ccc5c(c4)OCO5)c2cc1OC)C(=O)OC3`, the AC35 was 2.34 µM. For the molecule `O=C(NC(c1ccc(F)cc1)c1ccc2ccccc2n1)C1CCN(Cc2cccc(C(F)(F)F)c2)CC1` (stereo not given), the AC35 was 7.77 µM. The result for `COc1ccc(OC)c(-c2nnc3n2N=C(c2ccc(OC)c(OC4CCCC4)c2)CS3)c1` reads 12.6 µM; that for `CN1C/C(=C/c2ccsc2)C(=O)/C(=C/c2ccsc2)C1`, 9.82 µM. For the molecule `Cc1c(CC(=O)NCCCC(=O)O)c(=O)oc2cc3c(cc12)CCC(C)(C)O3`, the AC35 is 2.74 µM.

As to `CCN(Cc1ccccc1)c1ccc(/C=N/N=C(N)N)cc1`, the AC35 was 10.6 µM. On to `CN=c1scc(-c2ccccc2F)n1/N=C/c1ccc[nH]1`, for which the AC35 was 0.194 µM. For the molecule `O=C(/C=C/c1ccc(Cl)cc1Cl)N(Cc1ccc(Cl)cc1)C1CCS(=O)(=O)C1` (stereo not given), the AC35 was 33.5 µM. The result for `O=C(C[C@@H]1CC[C@@H]2[C@H](COC[C@@H](O)CN2S(=O)(=O)c2ccc(F)cc2)O1)NCc1ccc(Cl)c(Cl)c1` reads 61.8 µM; that for `COc1ccc(Nc2ncnc3ccc(Br)cc23)c(OC)c1`, 5.94 µM. `CCN1CCN(/C=N/c2nc3c(s2)CCCC3)CC1`: the AC35 was 7.97 µM. In the case of `Cc1ccc(N2C(=O)c3cccc4c(N)ccc(c34)C2=O)c2cccnc12`, the AC35 was below 0.03 µM. `COc1ccccc1N(/N=C1\Sc2ccccc2C1=O)C(C)=O`: the AC35 was 23.6 µM.

For the molecule `C=C1C(=O)OC2C1CCC(C)C1(O)C=CC(=O)C21C` (stereo not given), the AC35 is 11.5 µM. For the molecule `O=C(NC(=O)c1ccccc1)Nc1ccccc1`, the AC35 was 12.8 µM. With `COc1ccc(NC(=O)N2CCCCN3[C@H](CO)[C@H](c4ccc(C#CCC(C)C)cc4)[C@H]3C2)cc1`, the AC35 was 9.98 µM.

Turning to `N#C[C@H]1[C@H](c2ccc(C#Cc3ccccc3F)cc2)[C@@H](CO)N1C(=O)C1CCCCC1`, the AC35 was 19.5 µM. The result for `O=C(CCCN1C(=O)S/C(=C\c2ccccc2)C1=O)NNC(=O)c1ccccc1O` reads 4.38 µM; that for `O=C1C(=O)N(CCS(=O)(=O)c2ccccc2)c2ccccc21`, 20.7 µM; that for `COc1ccc(C(CCNCc2ccc(OC(C)C)cc2)C(C)C)cc1` (stereo not given), 15.2 µM. For `CCOc1cc(/C=N/Nc2cc(C)nc(-n3nc(C)cc3C)n2)ccc1O` the value was 35.8 µM; for `C(=N\Nc1nc2ccccc2[nH]1)/c1ccccn1`, 5.58 µM; for `CCOC(=O)Cc1csc(NC(=S)NC(=O)c2ccc(C)cc2)n1`, 0.265 µM. The result for `Cc1nc(N)nc(N)c1-c1ccc(Cl)c(Cl)c1` reads 0.495 µM. Consider `C[C@@H]1CN([C@H](C)CO)C(=O)c2cc(NC(=O)CCCCCC(=O)Nc3ccccc3N)ccc2O[C@@H]1CN(C)Cc1ccc(Cl)c(Cl)c1`, for which the AC35 is 5.24 µM. With `C[C@@H]1CN([C@@H](C)CO)C(=O)c2cccc(N(C)C)c2O[C@@H]1CN(C)Cc1ccc(C(=O)Nc2ccccc2N)cc1`, the AC35 is 39.8 µM.

For the molecule `Nc1ccc(-c2cc3ccccc3oc2=O)cc1`, the AC35 is 0.208 µM. As for `Oc1c(C(c2ccc(Cl)cc2)N2CCCC2)cc(Cl)c2cccnc12` (stereo not given), the AC35 was 9.79 µM. The result for `C(=Cc1c[nH]c2ccccc12)c1ccc2ccccc2n1` reads 2.22 µM; that for `O=c1c2ccccc2nc(/C=C/c2cc(Br)ccc2O)n1CCCO`, 23.9 µM.

For the molecule `C(=Cc1cnc2ccccc2n1)c1ccc2c(c1)OCO2`, the AC35 was 1.12 µM. Take `C[C@H](CO)N1C[C@H](C)[C@H](CN(C)Cc2ccc(C(F)(F)F)cc2)Oc2c(NS(=O)(=O)c3ccc(Cl)cc3)cccc2C1=O`: the AC35 is 43.4 µM. As for `COc1cc(OC)cc(-c2cc3nc(C)c(CCC(=O)NCc4ccccc4)c(C)n3n2)c1`, the AC35 is 3.44 µM. The result for `O=C(CN1C(=O)C(=O)c2ccccc21)c1ccc(Cl)cc1` reads 34.2 µM. For `COc1ccc(S(=O)(=O)N2CC[C@@H]3[C@@H](CO)Nc4ccc(-c5ccc(C#N)cc5)cc4[C@@H]32)cc1` the value was 0.625 µM; for `C[C@H]1CCCCO[C@H](CN(C)Cc2ccc(C(F)(F)F)cc2)[C@@H](C)CN([C@@H](C)CO)C(=O)c2cc(NC(=O)Nc3ccccc3)ccc2O1`, 19.4 µM; for `N#CC1C=Cc2c(ccc3ccccc23)N1C(=O)c1ccccc1` (stereo not given), 0.692 µM. In the case of `COc1cc2c(cc1OC)C(C)N(C(=O)c1cc(Cl)nc(Cl)c1)CC2` (stereo not given), the AC35 was 6.06 µM.

As to `Nc1nc(=S)c2ncn([C@@H]3O[C@H](CO)[C@@H](O)[C@H]3O)c2[nH]1`, the AC35 was 4.88 µM. Consider `N#CC1=C(N)Oc2cc(N)ccc2C1c1cccc(F)c1` (stereo not given), for which the AC35 was 1.96 µM. The result for `COc1ccc(S(=O)(=O)Nc2ccc3c(c2)C(=O)N([C@H](C)CO)C[C@@H](C)[C@@H](CN(C)Cc2ccc(C(=O)Nc4ccccc4N)cc2)O3)cc1` reads 5.11 µM; that for `CCN1/C(=C/C=C/c2oc3ccc(-c4ccccc4)cc3[n+]2CC)Oc2ccc(-c3ccccc3)cc21`, 2.49 µM; that for `C=C1C(=O)[C@@]23[C@H](O)C[C@@H]4C(C)(C)CC[C@H](O)[C@@]4(C)[C@@H]2CC[C@@H]1[C@H]3O`, 9.06 µM. The result for `O=C1NC(=O)N(CCc2ccc(F)cc2)C(=O)/C1=C/C=C/c1ccccc1` reads 2.66 µM; that for `C[C@H](CO)N1C[C@H](C)[C@H](CN(C)Cc2ccc(C(=O)Nc3ccccc3N)cc2)Oc2c(cccc2N(C)C)C1=O`, 12.9 µM.

Regarding `CC(=NNc1cc(C)c2ccccc2n1)c1ccccn1`, the AC35 was 8.23 µM. For `Nc1sc(-c2ccccc2)cc1-c1n[nH]c(=S)n1C1CCCCC1` the value was 3.67 µM; for `O=C(NCc1ccc(F)cc1)N1[C@H]2CC[C@@H]1C=C(c1ccc(F)cc1OCc1ccccc1)C2`, 9.93 µM.

Take `Nc1nc(N)c(-c2cccc(C(F)(F)F)c2)c(Cc2cccc(C(F)(F)F)c2)n1`: the AC35 was 2.54 µM.

In the case of `O=C1NC(=O)N(c2ccccc2)C(=O)/C1=C\C=C\c1ccccc1`, the AC35 was 8.31 µM. For `O=c1[nH]c(/C=C2\C=Nc3ccccc32)c(O)n1Cc1ccccc1F` the value was 4.21 µM; for `Cc1cc(Br)ccc1N=C1C(=O)Nc2ccccc21`, 5.12 µM.

As to `COc1ccc([Si](C)(C)[C@H]2[C@H](CCO)O[C@@]3(C(=O)N(c4ccccc4)c4ccccc43)[C@@H]2C)cc1`, the AC35 is 7.79 µM.

Regarding `C[C@H](CO)N1C[C@H](C)[C@H](CN(C)Cc2ccc(Oc3ccccc3)cc2)Oc2ccc(NC(=O)CCCCCC(=O)Nc3ccccc3N)cc2CC1=O`, the AC35 was 4.15 µM. The result for `C[C@@H]1CN([C@@H](C)CO)S(=O)(=O)c2ccc(C#Cc3ccncc3)cc2O[C@H]1CN(C)C(=O)C1CCOCC1` reads 49.8 µM. For `COc1ccc(C2=Nn3c(nnc3-c3ccccc3OC)SC2)cc1OCC1CC1` the value was 6.71 µM; for `C[C@@H]1CN([C@H](C)CO)C(=O)c2cc(C#CCc3ccccc3)cnc2O[C@@H]1CN(C)Cc1cccc(F)c1`, 46.1 µM.

`C[C@@H]1CN([C@H](C)CO)S(=O)(=O)c2ccc(C#CC(C)(C)O)cc2O[C@H]1CN(C)Cc1ccc(-c2ccccc2)cc1`: the AC35 was 4.22 µM.

In the case of `COc1cc(/C=N/NS(=O)(=O)c2ccc(C)cc2)ccc1OCc1cccc(C(=O)O)c1`, the AC35 is 4.09 µM. For `C[C@H]1CN([C@@H](C)CO)C(=O)c2cccc(NC(=O)c3ccc(-c4nccs4)cc3)c2O[C@@H]1CN(C)Cc1ccc(C(=O)Nc2ccccc2N)cc1` the value was 14.1 µM; for `CCN1CCS/C1=C\C=C\C1=[N+](CC)CCS1`, 12.3 µM.

Consider `O=C(c1cccc(S(=O)(=O)NCc2ccccc2)c1)N1CCN(c2ccccc2)CC1`, for which the AC35 is 11.6 µM. In the case of `O=C(Sc1cccc2cccnc12)c1ccccc1Br`, the AC35 was 16.6 µM. `CC(=O)N1CCCC(c2cc(C(=O)Nc3ccccc3)no2)C1` (stereo not given): the AC35 was 2.06 µM. Regarding `C=C(C(=O)c1ccccc1)C(C)C(=C)C(=O)c1ccccc1`, the AC35 was 5.4 µM. The result for `CC(=O)OC1CC(OC2C(O)CC(OC3C(O)CC(OC4CCC5(C)C(CCC6C5CC(O)C5(C)C(C7=CC(=O)OC7)CCC65O)C4)OC3C)OC2C)OC(C)C1OC1OC(CO)C(O)C(O)C1O` (stereo not given) reads 0.225 µM; that for `COc1ccc(/C=C2\SC(=S)N(CCCC(=O)NNC(=O)c3ccccc3O)C2=O)cc1`, 9.15 µM; that for `C[C@@H]1CN([C@@H](C)CO)C(=O)c2cc(NS(=O)(=O)c3ccc(Cl)cc3)ccc2O[C@@H]1CN(C)Cc1ccc(C(=O)Nc2ccccc2N)cc1`, 7.36 µM. As to `N#C[C@H]1[C@H](c2ccc(C#Cc3ccccc3F)cc2)[C@@H](CO)N1C(=O)C1CCOCC1`, the AC35 was 34 µM.

In the case of `CC(=O)Oc1ccc(-c2ccc(C(=O)Nc3cccc(S(=O)(=O)N4CCOCC4)c3)cc2)cc1`, the AC35 is 12.9 µM. `Cc1ccc2c(=O)n3c(nc2c1)C(Cc1ccc(O)cc1)NC(=O)c1cc2ccccc2cc1-3` (stereo not given): the AC35 is 6.25 µM. Regarding `C[C@H]1CN([C@@H](C)CO)C(=O)Cc2cc(NC(=O)C3CC3)ccc2O[C@H]1CN(C)S(=O)(=O)c1ccc(Cl)cc1`, the AC35 was 16.1 µM.

(Values after PubChem BioAssay AID686920 (Broad Institute, 2013).)
